Measured values reported in patent US5258406A, “Sulfonimidamides” (priority 1992, dated 1993).
Values joined by “and” are separate entries in the source; they are usually repeats but may differ in a detail not shown here. Equal entries are not always repeated. Where two headings read alike, the source gives them in different places.

Tested on: 6C3HED lymphosarcoma
Experiment: animal or person
Format: in vivo
Conditions: for inhibition in vivo at 75 mg/kg: read-out: % inhibition of tumor growth, oral, 75 mg/kg, BIDX 8; for inhibition in vivo at 100 mg/kg: read-out: % inhibition of tumor growth, oral, 100 mg/kg, BIDX 8
Description: The compounds were tested in C3H mice bearing a 6C3HED lymphosarcoma, also known as the Gardner lymphosarcoma (GLS), and in a variety of human tumor xenografts in CD1 nu/nu mice, including CX-1, LX-1, HXGC3, and VRC5. The 6C3HED lymphosarcoma was obtained from the Division of Cancer Treatment, National […] Institute, Tumor Bank, maintained at E. G. and G. Mason Research (Worcester, Mass.). The CX-1 human colon carcinoma and the LX-1 human lung carcinoma xenografts were obtained from the National Cancer Institute. The HXGC3 and VRC5 human colon xenografts were obtained from Dr. P. J. Houghton, St. Jude Children's Hospital in Memphis (see Br. J. Cancer, 37, 213 (1978)). First passage tumor was stored in liquid nitrogen using standard techniques. The transplanted tumor was reestablished from the Tumor Bank every six months or as needed. The tumor was maintained by serial passage twice weekly in C3H mice.
In the procedure the tumor was removed from passage animals and minced into 1- to 3-mm square fragments using sterile techniques. Tumor pieces were checked for sterility using both Antibiotic Medium 1 and Brain Heart Infusion (Difco, Detroit, Mich.). Recipient mice were shaved and tumor pieces were implanted subcutaneously in the auxiliary region by trocar. Drug therapy on the appropriate schedule was initiated on the day after tumor implant for 6C3HED and after a seven (7) day delay for xenografts (or other delay as noted in Table 2). The compound being tested was mixed with 2.5% Emulphor EL620 from GAF Corporation (1:40 dilution in saline). Food and water were provided ad libitium. The drug was administered orally in 0.5 ml of 2.5% Emulphor (unless otherwise indicated). The tumor was measured the day after treatment ended with two dimensional measurements (width and length) of the tumor taken using automated digital calipers interfaced to a microcomputer. Approximate weight for the tumor was calculated using the following formula [Worzalla, J. F., et al., Invest. New Drugs, 8, 241 (1990], (tumor weight in mg)=(width in mm)^2 ×(length in mm)/2.
At least one control group of an equal number of mice was treated with the same volume of 2.5% Emulphor only. The percent inhibition was determined by subtracting the ratio of the mean tumor size of the test group relative to the control group from one and multiplying the result times 100.
The results of several experiments in mice bearing a 6C3HED lymphosarcoma (or other tumor where indicated) when the indicated compounds were administered are provided in Table 2. In Table 2, column 1 gives the Example number of the compound used, column 2 lists the dose level in mg/kg, column 3 provides the percent inhibition of tumor growth, column 4 gives the number of mice which died relative to the total number of animals in the group, column 5 gives the method of administration of the compound, and column 6 gives the dosage schedule. The protocol used with other tumors was the same as with the 6C3HED lymphosarcoma.

[1] = Mus musculus, 6C3HED, po, read-out: % inhibition of tumor growth, oral, 50 mg/kg, BIDX 8
[2] = Mus musculus, 6C3HED, po, read-out: % inhibition of tumor growth, oral, 150 mg/kg, BIDX 8
[3] = Mus musculus, 6C3HED, po, read-out: % inhibition of tumor growth, oral, 25 mg/kg, BIDX 8
[4] = Mus musculus, 6C3HED, po, read-out: % inhibition of tumor growth, oral, 300 mg/kg, BIDX 8
[5] = Mus musculus, 6C3HED, ip, read-out: % inhibition of tumor growth, IP, 150 mg/kg, DX 8

Row | SMILES | inhibition in vivo at 50 mg/kg [1] | inhibition in vivo at 75 mg/kg (Mus musculus, 6C3HED, po) | inhibition in vivo at 150 mg/kg [2] | Tox/Tot (mice which died / total) (oral, 50 mg/kg, BIDX 8) | Tox/Tot (mice which died / total) (oral, 75 mg/kg, BIDX 8) | Tox/Tot (mice which died / total) (oral, 150 mg/kg, BIDX 8) | Tox/Tot (mice which died / total) (oral, 300 mg/kg, BIDX 8) | inhibition in vivo at 25 mg/kg [3] | inhibition in vivo at 100 mg/kg (Mus musculus, 6C3HED, po) | inhibition in vivo at 300 mg/kg [4] | Tox/Tot (mice which died / total) (oral, 25 mg/kg, BIDX 8) | Tox/Tot (mice which died / total) (oral, 100 mg/kg, BIDX 8) | Tox/Tot (mice which died / total) (IP, 150 mg/kg, DX 8) | Tox/Tot (mice which died / total) (IP, 300 mg/kg, DX 8) | inhibition in vivo at 150 mg/kg [5] | other results
1 | NS(=O)(=NC(=O)Nc1ccc(Cl)cc1)c1ccc(Br)cc1 (stereo not drawn) [Example 30] | 55% | 67% | 99% | 0/10 | 0/10 | 3/10 and 1/10 | 10/10 | – | – | – | – | – | – | – | – | inhibition in vivo at 9 mg/kg (Mus musculus, 6C3HED, po, read-out: % inhibition of tumor growth, oral, 9.00 mg/kg, BIDX 8): 4%; inhibition in vivo at 18.75 mg/kg (Mus musculus, 6C3HED, po, read-out: % inhibition of tumor growth, oral, 18.75 mg/kg, BIDX 8): 19%; inhibition in vivo at 37.5 mg/kg (Mus musculus, 6C3HED, po, read-out: % inhibition of tumor growth, oral, 37.5 mg/kg, BIDX 8): 42%; Tox/Tot (mice which died / total) (oral, 9.00 mg/kg, BIDX 8): 0/10; Tox/Tot (mice which died / total) (oral, 18.75 mg/kg, BIDX 8): 1/10; Tox/Tot (mice which died / total) (oral, 37.5 mg/kg, BIDX 8): 1/10; % inhibition of tumor growth (oral, 150 mg/kg, BIDX 8): 89%; % inhibition of tumor growth (oral, 300 mg/kg, BIDX 8): TOX
2 | CCc1ccc(S(=N)(=O)NC(=O)Nc2ccc(Cl)cc2)cc1 (stereo not drawn) [Example 33, N-[[(4-chlorophenyl)amino]carbonyl]-4-ethylbenzenesulfonimidamide] | 98% | – | 100% | 1/10 | – | 8/10 | 8/10 | 91% | 99% | 100% | 2/10 | 0/10 | – | – | – | inhibition in vivo at 6.25 mg/kg (Mus musculus, 6C3HED, po, read-out: % inhibition of tumor growth, oral, 6.25 mg/kg, BIDX 8): 36%; inhibition in vivo at 12.5 mg/kg (Mus musculus, 6C3HED, po, read-out: % inhibition of tumor growth, oral, 12.5 mg/kg, BIDX 8): 60%; Tox/Tot (mice which died / total) (oral, 6.25 mg/kg, BIDX 8): 0/10; Tox/Tot (mice which died / total) (oral, 12.5 mg/kg, BIDX 8): 0/9
3 | Cc1cc(C)cc(S(N)(=O)=NC(=O)Nc2ccc(Cl)cc2)c1 (stereo not drawn) [Example 39] | – | – | – | – | – | – | – | – | 44% | – | – | 0/10 | – | – | – | inhibition in vivo at 200 mg/kg (Mus musculus, 6C3HED, po, read-out: % inhibition of tumor growth, oral, 200 mg/kg, BIDX 8): 77%; Tox/Tot (mice which died / total) (oral, 200 mg/kg, BIDX 8): 0/10
4 | CC(=O)OCc1ccc(S(=N)(=O)NC(=O)Nc2ccc(Cl)cc2)cc1 (stereo not drawn) [Example 49, N-[[(4-chlorophenyl)amino]carbonyl]-4-(acetoxymethyl)benzenesulfonimidamide] | 87% | 96% | 99% | 0/10 | 0/10 | 0/10 | 3/10 | 64% | – | 100% | 0/10 | – | 8/10 | 10/10 | 99% | Tox/Tot (mice which died / total) (IP, 12.5 mg/kg, DX 8): 0/10; Tox/Tot (mice which died / total) (IP, 25 mg/kg, DX 8): 0/10; Tox/Tot (mice which died / total) (IP, 50 mg/kg, DX 8): 1/10; % inhibition of tumor growth (IP, 300 mg/kg, DX 8): TOX; inhibition in vivo at 12.5 mg/kg (Mus musculus, 6C3HED, ip, read-out: % inhibition of tumor growth, IP, 12.5 mg/kg, DX 8): 29%; inhibition in vivo at 25 mg/kg (Mus musculus, 6C3HED, ip, read-out: % inhibition of tumor growth, IP, 25 mg/kg, DX 8): 36%; inhibition in vivo at 50 mg/kg (Mus musculus, 6C3HED, ip, read-out: % inhibition of tumor growth, IP, 50 mg/kg, DX 8): 63%
5 | N=S(=O)(NC(=O)Nc1ccc(Cl)cc1)c1ccc(C=O)cc1 (stereo not drawn) [Example 51, N-[[(4-chlorophenyl)amino]carbonyl]-4-formylbenzenesulfonimidamide] | – | – | – | – | – | – | – | – | – | – | – | – | 0/10 | 9/10 | 80% | inhibition in vivo at 300 mg/kg (Mus musculus, 6C3HED, ip, read-out: % inhibition of tumor growth, IP, 300 mg/kg, DX 8): 99%
